Reference: patent US9233095B2, “Small molecule RNase inhibitors and methods of use” (University of Rochester, priority 2011, dated 2016)
Values after ≈ are worked out from the molar mass of the structure shown.

Experiments:
[1] = tested on: S. aureus (MSSA); assay: CLSI broth microdilution MIC; format: cell-based, Staphylococcus aureus; details: Staphylococcus aureus, MSSA; strain UAMS-1
Source text: In some examples, compounds can be further assayed using the Mueller Hinton (MH) broth antibacterial assay as specified by the Clinical and Laboratory Standards Institute MIC broth microdilution protocol (see Methods for Dilution Antimicrobial Susceptibility Tests for Bacteria That Grow Aerobically; Approved Standard, In The Clinical and Laboratory Standards Institute (CLSI, formerly NCCLS), 7th ed., January 2006, 26 (2), M7-A7; see also Performance Standards for Antimicrobial Susceptibility Testing; Eighteenth Informational Supplement, In The Clinical and Laboratory Standards Institute (CLSI, formerly NCCLS), January 2008, 28 (1), M100-S18).
With the exception of RN4220-derivatives, in vitro activities of RNPA1000 against bacteria were determined by the broth microdilution method according to the Clinical and Laboratory Standards Institute (CLSI) guidelines using cation adjusted Mueller-Hinton broth or MH broth supplemented with 5% lysed horse blood (for testing Streptotococcus spp.). Microtiter plates containing serial dilutions of RNPA1000 (0, 4, 8, 16, 32, 64, and 128 μg/ml) were inoculated with 10^5 colony forming units (CFU)/ml and incubated for 18 hr at 37° C. […] The MIC value for each S. aureus strain was determined to be the median score of replicate measurements (n=5). Wells containing concentrations of RNPA1000≧MIC were plated for minimal bactericidal measurement. Where possible, experiments with VRSA strains were performed in a laminar flow hood to minimize potential for equipment contamination. For RN4220 cells containing plasmid vector (pCN51), RnpA overproducing plasmid (pRNPA-S) or RnpA underproducing plasmid (pRNPA-A.S.) in vitro antimicrobial activity of RNPA1000 was performed by the microdilution method as described above, except that cells were grown in Tryptic Soy Broth medium supplemented with 2.5 μM CdCl2 and 0, 1, 2, 4, 8, 16, 32, 64, or 128 μg/ml RNPA1000. Time-kill assays were also performed to monitor the antimicrobial properties of RNPA1000 for S. aureus strain UAMS-1 in the absence and presence of 0.25, 0.5, 2, and 4 times the strain's MIC for oxacillin (1 μg/ml), rifampicin (0.5 μg/ml), vancomycin (2 μg/ml), or daptomycin (1 μg/ml). The indicated amount of RNPA1000 and/or commercial antibiotic were added to mid-exponential phase (2×10^8 cfu/ml) S. aureus strain UAMS-1 cells and incubated at 37° C. Aliquots were removed at 0, 2, 4, 8, and 24 hr post-antimicrobial challenge, serial diluted, and plated to enumerate resulting cfu/ml. All time-kill assays were repeated at least 3 times.

[2] = tested on: HepG2 human hepatocytes; assay: MTT cytotoxicity assay; format: cell-based; details: for HepG2 cell toxicity: 24 hr exposure, any concentration tested (25, 50 μg/ml); for HepG2 cytotoxicity: 48 hr exposure
Protocol: It was then assessed whether RnpA-inhibitory agent concentrations corresponding to the effective bacterial MIC values (10-50 μg/ml) elicited human cell cytotoxicity. HepG2 human hepatocytes (10^5 cells) were seeded in individual wells of a microtitre plate and incubated for 16 hr at 37° C. with 5% carbon dioxide in Dulbecco's Modified Eagle Media supplemented with 10% fetal bovine serum. Cells were then challenged with Mitomycin C (5 μg/ml; positive control) or 0, 25, or 50 μg/ml RNPA1000 for either 24 or 48 hrs. Cell viability was measured spectrophotometrically (570 nm) following the addition and subsequent reduction of tetrazolium salt (MTT) within metabolically active cells, as per the manufacturer's recommendations (American Type Culture Collection; Manassas, Va.).

[3] = target: T1, RNase I (Escherichia coli, UniProt P21338); assay: ribonuclease specificity test; format: biochemical; details: any concentration tested (0-750 μM)
T1 construct: purchased
T1 sequence (P21338 24-268): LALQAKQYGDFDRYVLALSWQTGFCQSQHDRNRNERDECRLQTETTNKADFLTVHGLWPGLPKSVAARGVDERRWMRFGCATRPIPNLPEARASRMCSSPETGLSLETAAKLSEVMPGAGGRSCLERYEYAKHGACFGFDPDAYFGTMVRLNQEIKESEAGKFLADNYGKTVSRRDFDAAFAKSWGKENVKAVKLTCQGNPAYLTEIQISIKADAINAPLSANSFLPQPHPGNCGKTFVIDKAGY
Source text: (§1) In total, fourteen molecules inhibited the enzyme's RNA turnover activity by ≧50%. A gel-based secondary assay confirmed that five of these molecules were bona-fide inhibitors of RnpA-mediated RNA degradation (FIG. 3B).

[4] = target: T2, S. aureus RNase J1 (Staphylococcus aureus, UniProt Q2FZG9); assay: ribonuclease specificity test; format: biochemical; details: any concentration tested (0-750 μM)
T2 construct: hexahistidine-tag (N); made in house; host or cells: E. coli BL21 (DE3)
Source text: as §1

[5] = target: T3, E. coli RNase HI (Escherichia coli, UniProt P0A7Y4); assay: ribonuclease specificity test; format: biochemical; details: any concentration tested (0-750 μM)
T3 construct: purchased
T3 sequence (P0A7Y4 whole entry): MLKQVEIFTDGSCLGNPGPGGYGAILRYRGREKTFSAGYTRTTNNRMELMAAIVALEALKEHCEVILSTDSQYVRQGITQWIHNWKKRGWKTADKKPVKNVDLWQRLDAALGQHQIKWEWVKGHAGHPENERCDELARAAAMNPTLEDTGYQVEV
Source text: as §1

[6] = target: T4, RNase A (Bos taurus, UniProt P61823); assay: ribonuclease specificity test; format: biochemical; details: any concentration tested (0-750 μM)
T4 construct: purchased
T4 sequence (P61823 27-150): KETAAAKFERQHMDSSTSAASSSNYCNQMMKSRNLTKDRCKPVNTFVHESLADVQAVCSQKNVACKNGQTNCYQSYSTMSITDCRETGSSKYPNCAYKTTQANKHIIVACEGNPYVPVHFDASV
Source text: as §1

[7] = target: E. coli RNase III (Escherichia coli, UniProt P0A7Y0); assay: ribonuclease specificity test; format: biochemical; details: data not shown
E. coli RNase III, sequence (P0A7Y0 whole entry): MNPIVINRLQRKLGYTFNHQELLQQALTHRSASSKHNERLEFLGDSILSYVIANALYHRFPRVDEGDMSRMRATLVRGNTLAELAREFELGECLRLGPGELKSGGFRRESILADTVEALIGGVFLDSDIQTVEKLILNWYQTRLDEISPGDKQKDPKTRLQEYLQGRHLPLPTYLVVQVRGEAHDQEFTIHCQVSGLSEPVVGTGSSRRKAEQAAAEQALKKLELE
Source text: as §1

## Cc1cc(/C=C(/C#N)C(=O)Nc2cccc(Br)c2)c(C)n1-c1ccc(C(=O)O)cc1 [RNPA1000]
[1]
  MIC: 26 µg/mL (≈ 56 µM)
[2]
  HepG2 cell toxicity: not toxic
[2]; listed as RNP1000
  HepG2 cell toxicity: did not cause human HepG2 cell toxicity
[2]; 25 μg/ml
  HepG2 cytotoxicity: mildly toxic
[2]; 25 μg/ml, listed as RNP1000
  HepG2 cytotoxicity: mild cytotoxicity
[2]; higher concentrations than 25 μg/ml
  HepG2 cytotoxicity: increased toxicity
[3]
  effect on RNase I activity: did not affect the activity
[4]
  effect on S. aureus RNase J1 activity: did not affect the activity
[5]
  effect on E. coli RNase HI activity: did not affect the activity
[6]
  effect on RNase A activity: did not affect the activity
[7]
  IC50: 500 to 750 µM
